Measurements: paper PMC3655264, “A Large-Scale Conformational Change Couples Membrane Recruitment to Cargo Binding in the AP2 Clathrin Adaptor Complex” (Cell, 2010)

Tests used:
Assay in all cases: SPR, PtdIns4,5P2-containing liposomes on L1 chip
AP2 core [1] = molecular target: T1, AP2 core (Rattus norvegicus; Mus musculus; Homo sapiens, UniProt P18484+P63010+P84092); settings: apparent, multivalent membrane binding (sites on alpha, beta2, mu2); no cargo peptide; 10 mM Tris pH 8.7, 250 mM NaCl
T1 construct: gene Ap2a2; heterotetrameric 200 kDa core: alpha trunk-GST, His6-beta2 trunk, mu2 with myc tag (MEQKLI) in surface loop at residue 236, untagged sigma2; E. coli; with AP-2 complex subunit sigma

AP2 core [2] = molecular target: T2, AP2 core (Rattus norvegicus; Mus musculus; Homo sapiens, UniProt P18484+P63010+P84092, form not given, species not given); settings: apparent, multivalent membrane binding; five lysines of the second basic region (Lys330-Lys373) of C-mu2 to Glu, which five not told
T2 construct: gene Ap2a2; heterotetrameric 200 kDa core: alpha trunk-GST, His6-beta2 trunk, mu2 with myc tag (MEQKLI) in surface loop at residue 236, untagged sigma2; E. coli; with AP-2 complex subunit sigma
Text: SPR, PtdIns4,5P2-containing liposomes on L1 chip on AP2 core | (5K>E) slightly weakens the binding of AP2 cores to PtdIns4,5P2-containing membranes
Target sequence in this assay (P18484 1-620): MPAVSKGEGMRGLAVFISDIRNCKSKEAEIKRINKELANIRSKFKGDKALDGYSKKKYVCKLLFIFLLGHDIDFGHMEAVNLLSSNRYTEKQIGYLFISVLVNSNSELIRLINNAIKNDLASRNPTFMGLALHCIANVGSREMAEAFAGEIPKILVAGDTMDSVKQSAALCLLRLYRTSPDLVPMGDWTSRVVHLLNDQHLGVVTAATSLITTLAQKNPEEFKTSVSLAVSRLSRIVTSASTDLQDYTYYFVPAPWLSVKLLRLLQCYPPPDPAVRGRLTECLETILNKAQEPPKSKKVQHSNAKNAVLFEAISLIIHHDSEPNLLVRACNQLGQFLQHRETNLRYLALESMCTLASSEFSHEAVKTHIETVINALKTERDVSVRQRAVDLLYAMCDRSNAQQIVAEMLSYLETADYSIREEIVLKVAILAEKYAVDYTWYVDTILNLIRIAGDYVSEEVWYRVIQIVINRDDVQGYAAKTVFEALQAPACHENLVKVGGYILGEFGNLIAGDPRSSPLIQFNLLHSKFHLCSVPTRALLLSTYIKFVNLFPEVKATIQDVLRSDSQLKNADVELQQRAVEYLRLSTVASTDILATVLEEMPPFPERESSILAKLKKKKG
Target sequence in this assay (P84092 whole entry): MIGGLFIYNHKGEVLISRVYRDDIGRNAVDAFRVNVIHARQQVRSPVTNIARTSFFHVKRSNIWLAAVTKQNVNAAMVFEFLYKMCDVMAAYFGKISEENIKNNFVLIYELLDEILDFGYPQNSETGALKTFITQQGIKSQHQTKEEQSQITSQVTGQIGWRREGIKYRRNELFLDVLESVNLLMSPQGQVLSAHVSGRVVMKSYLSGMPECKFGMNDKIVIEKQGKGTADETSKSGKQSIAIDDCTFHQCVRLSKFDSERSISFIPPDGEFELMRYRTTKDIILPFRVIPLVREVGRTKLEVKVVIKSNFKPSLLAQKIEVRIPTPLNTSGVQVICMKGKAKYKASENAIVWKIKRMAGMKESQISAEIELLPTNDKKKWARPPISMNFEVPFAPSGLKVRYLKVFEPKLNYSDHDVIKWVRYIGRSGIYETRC
Target sequence in this assay (P62743 whole entry, further chain): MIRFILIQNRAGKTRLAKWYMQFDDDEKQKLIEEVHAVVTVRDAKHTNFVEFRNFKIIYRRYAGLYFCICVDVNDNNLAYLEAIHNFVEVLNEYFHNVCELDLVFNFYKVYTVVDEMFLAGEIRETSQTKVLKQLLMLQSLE
Target sequence in this assay (P63010 1-592): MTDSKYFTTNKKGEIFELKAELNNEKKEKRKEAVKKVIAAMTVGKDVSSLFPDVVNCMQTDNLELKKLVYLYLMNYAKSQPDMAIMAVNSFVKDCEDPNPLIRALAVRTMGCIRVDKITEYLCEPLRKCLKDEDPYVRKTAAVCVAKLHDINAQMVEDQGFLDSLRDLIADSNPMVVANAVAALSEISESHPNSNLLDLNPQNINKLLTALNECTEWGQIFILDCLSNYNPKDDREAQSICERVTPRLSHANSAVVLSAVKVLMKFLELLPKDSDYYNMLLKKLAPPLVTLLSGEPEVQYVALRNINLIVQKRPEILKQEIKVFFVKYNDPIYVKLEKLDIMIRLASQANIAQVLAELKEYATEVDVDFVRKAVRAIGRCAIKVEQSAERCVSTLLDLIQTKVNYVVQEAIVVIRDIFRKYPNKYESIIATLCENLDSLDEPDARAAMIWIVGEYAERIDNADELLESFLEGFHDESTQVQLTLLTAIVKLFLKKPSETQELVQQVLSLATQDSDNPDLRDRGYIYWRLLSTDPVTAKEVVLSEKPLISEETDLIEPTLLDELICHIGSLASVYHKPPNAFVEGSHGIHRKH

AP2 core [3] = molecular target: T2, AP2 core; settings: apparent, multivalent membrane binding
Target sequence in this assay (P62743 whole entry): as the sequence (P62743 whole entry, further chain) above
Target sequence in this assay (P18484 1-620): as the sequence (P18484 1-620) above
Target sequence in this assay (P84092 whole entry): as the sequence (P84092 whole entry) above
Target sequence in this assay (P63010 1-592): as the sequence (P63010 1-592) above

T1 sequence (P62743 whole entry): as the sequence (P62743 whole entry, further chain) above
T1 sequence (P84092 whole entry): as the sequence (P84092 whole entry) above
T1 sequence (P63010 1-592): as the sequence (P63010 1-592) above
T1 sequence (P18484 1-620): as the sequence (P18484 1-620) above

Kd (AP2 core [1]): 7 µM
Kd (AP2 core [2]): 11 µM
Kd (AP2 core [3]): 30 µM
Substance: PtdIns4,5P2
